From patent US9737073B2, “Herbicidal weed control from combinations of fluroxypyr and ALS inhibitors” (Dow AgroSciences LLC, priority 2014, dated 2017) come the findings set out here.

Where “and” joins values, the source holds several entries; their conditions need not be identical. Equal entries are not always repeated.

What all share (type): in vivo
The test system of test [1] is Abutilon theophrasti (velvetleaf, ABUTH). Briefly: Postemergence herbicidal weed control, fluroxypyr-meptyl and diclosulam, greenhouse trials (Table 1). Here is the method: (§1) Seeds of the desired test plant species were planted in a peat-based potting soil, Metro-Mix 360® in plastic pots with a surface area of 128 square centimeters (cm^2). Metro-Mix 360® consists of formulated Canadian sphagnum peat moss, coarse perlite, bark ash, a starter nutrient charge (with gypsum), a slow-release nitrogen and dolomitic limestone. The plants were grown for 7-19 days in a greenhouse with an approximate 14-hour (h) photoperiod which was maintained at about 29° C. during the day and 26° C. during the night. Nutrients and water were added on a regular basis and supplemental lighting was provided with overhead metal halide 1000-Watt lamps as necessary. The plants were treated with postemergence foliar applications when they reached the third to fourth true leaf stage. All treatments were applied using a randomized complete block trial design, with 4 replications per treatment.
(§2) Treatments consisted of the compounds as listed in Tables 1 to 4, each compound applied alone and in combination. Commercially formulated products of fluroxypyr-meptyl (STARANE™, 333 grams acid equivalent per liter (g ae/L) EC), diclosulam (SPIDER® 84WG), cloransulam-methyl (FIRSTRATE™ 84WG), chlorimuron-ethyl (CLASSIC® 25WG) and thifensulfuron-methyl (HARMONY® 50SG). Formulated amounts of fluroxypyr-meptyl, diclosulam, cloransulam-methyl, chlorimuron-ethyl and thifensulfuron-methyl were placed in 60 milliliter (mL) glass vials and dissolved in a volume of 30 or 60 mL of a water solution containing Agri-dex crop oil concentrate in a 1% volume per volume (v/v) ratio. Compound requirements are based upon either a 30- or a 60-mL application volume at a rate of 200 liters per hectare (L/ha). Spray solutions of the mixtures were prepared by adding the stock solutions to the appropriate amount of dilution solution to form either a 30- or a 60-mL spray solution with active ingredients in single and two-way combinations. Formulated compounds were applied to the plant material with an overhead Generation III Research Sprayer manufactured by DeVries Manufacturing in Hollandale, Minn., USA. The track sprayer was equipped with an 8003E nozzle calibrated to deliver 200 L/ha at a spray height of 18 inches (43 centimeters (cm)) above average plant canopy.
(§3) The treated plants and untreated control plants were placed in a greenhouse as described above and watered by sub-irrigation to prevent wash-off of the test compounds.
(§4) Treatments were rated at 7 to 21 days after application (DAA) as compared to the untreated control plants. Visual weed control was scored on a scale of 0 to 100 percent where 0 corresponds to no injury and 100 corresponds to complete kill.
(§5) Colby's equation was used to determine the herbicidal effects expected from the mixtures (Colby, S. R. Calculation of the synergistic and antagonistic response of herbicide combinations. Weeds 196715, 20-22). A t-test (alpha=0.05) between Colby predictions and observed combinations was used to test for significant differences indicating synergy or antagonism. The results presented in the Tables were significant according to the described criteria.
(§6) The following equation was used to calculate the expected activity of mixtures containing two active ingredients, A and B: Expected=A+B−(A×B/100) • A=observed efficacy of active ingredient A at the same concentration as used in the mixture; • B=observed efficacy of active ingredient B at the same concentration as used in the mixture.

Test [2] relates to Amaranthus rudis Sauer (common waterhemp, AMATA). The description is as above. On the procedure: as §1, §2, §3, §4, §5, §6
For test [3], the system named is Abutilon theophrasti (velvetleaf, ABUTH). Kind of test: Postemergence herbicidal weed control, fluroxypyr-meptyl and cloransulam-methyl, field trials (Table 2). Here is the method:
as §1, §2, §3, §4
(§7) Field trials were conducted using standard herbicide small plot research methodology. Plots varied from 3×3.3 meter (m) to 4.5×10 m (width×length) with 4 replicates per treatment. The crops used in the field trials were grown using normal cultural practices for land preparation, fertilization, seeding and maintenance to ensure good growth of the crop and the weeds.
(§8) All treatments in the field trials were applied using either pressurized air or carbon dioxide (CO2) backpack or bicycle sprayers calibrated to apply 100-187 L/ha spray volume. Flat Fan spray nozzles were used in all trials, with water as the diluent applied at 275-300 kilopascals (kPa). Weed sizes at application ranged from 10 to 40 cm tall. Commercially available products of fluroxypyr-meptyl (STARANE™, 180 and 333 g ae/L EC), diclosulam (SPIDER® 84WG), and thifensulfuron-methyl (HARMONY® 75WG) were mixed in water at appropriately formulated product rates to achieve the desired rates based on a unit area of application (hectare) to achieve the desired rates as shown. No adjuvants were tank-mixed with any treatments applied in the field trials. Treatments were rated at 14-26 days after application as compared to the untreated control plants. […]

In test [4] the test system is Amaranthus rudis Sauer (common waterhemp, AMATA). The test is described as above. On the procedure:
as §1, §2, §3, §4, §7, §8

In test [5] the test system is Amaranthus retroflexus L. (redroot pigweed, AMARE). Kind of test: Postemergence herbicidal weed control, fluroxypyr-meptyl and thifensulfuron-methyl, field trials (Table 4). The note with it: 21DAA1, 17.5 g ae/ha. Here is the method: as §7
(§9) All treatments in the field trials were applied using either pressurized air or carbon dioxide (CO2) backpack or bicycle sprayers calibrated to apply 100-187 L/ha spray volume. Flat Fan spray nozzles were used in all trials, with water as the diluent applied at 275-300 kilopascals (kPa). Weed sizes at application ranged from 10 to 40 cm tall. Commercially available products of fluroxypyr-meptyl (STARANE™, 180 and 333 g ae/L EC), diclosulam (SPIDER® 84WG), and thifensulfuron-methyl (HARMONY® 75WG) were mixed in water at appropriately formulated product rates to achieve the desired rates based on a unit area of application (hectare) to achieve the desired rates as shown. No adjuvants were tank-mixed with any treatments applied in the field trials. Treatments were rated at 14-26 days after application as compared to the untreated control plants. Visual weed control was scored on a scale of 0 to 100 percent where 0 corresponds to no injury and 100 corresponds to complete kill.
(§10) The treated plots and control plots were rated blind at various intervals after application. Ratings were reported on a Percent (%) Visual Control basis, where 0 corresponds to no visual effect/weed control and 100 corresponds to complete kill of the target weeds.
as §5, §6

Test [6] deals with Chenopodium album (common lambsquarters, CHEAL). The test is described as above. The note with it: 21DAA1, 17.5 g ae/ha. On the procedure: as §7, §9, §10, §5, §6
The subject of test [7] is Polygonum convolvulus L. (wild buckwheat, POLCO). The test is described as above. The note with it: 21DAA1, 17.5 g ae/ha. Here is the method: as §7, §9, §10, §5, §6
The subject of test [8] is Abutilon theophrasti (velvetleaf, ABUTH). The description is as above. The note with it: 14DAA1, 100 g ae/ha. On the procedure: as §1, §2, §3, §4, §7
(§11) All treatments in the field trials were applied using either pressurized air or carbon dioxide (CO2) backpack or bicycle sprayers calibrated to apply 100-187 L/ha spray volume. Flat Fan spray nozzles were used in all trials, with water as the diluent applied at 275-300 kilopascals (kPa). Weed sizes at application ranged from 10 to 40 cm tall. […]

Test [9] deals with Amaranthus palmeri S. Wats. (Palmer amaranth, AMAPA). The description is as above. The note with it: 7DAA1, 50 g ae/ha. Here is the method: as §1, §2, §3, §4, §7, §11

As for `CCCCCCC(C)OC(=O)COc1nc(F)c(Cl)c(N)c1Cl` (centres unmarked) [Fluroxypyr-meptyl, fluroxypyr-methylheptyl ester], the “Fluroxypyr-meptyl Mean % weed control” value worked out at 70.0% in test [1] (14DAA1, 25 g ae/ha); 72.5% in test [1] (21DAA1, 25 g ae/ha); 60.0% in test [2] (8DAA1, 50 g ae/ha); 43.8% in test [2] (14DAA1, 50 g ae/ha); 37.5% in [2] (14DAA1, 100 g ae/ha); 37.5% in test [2] (21DAA1, 50 g ae/ha). In addition, the “Fluroxypyr-meptyl Mean % weed control” value in test [2] (21DAA1, 100 g ae/ha) was 38.8%; in test [3] (14DAA1, 25 g ae/ha) it was 68.3% and 70.0%; in test [3] (21DAA1, 25 g ae/ha), 71.7% and 72.5%; in test [4] (8DAA1, 25 g ae/ha), 42.5%; in test [4] (14DAA1, 25 g ae/ha) it was 21.3%; in test [4] (21DAA1, 25 g ae/ha) it was 22.5%. The “Fluroxypyr-meptyl Mean % weed control” value was found to be 3.8% in test [5]; 3.8% in [6]; 2.5% in test [7]; 80.8% in [8]; 48.8% in [9].
